Experiments:
Assay in all cases: microbiostatic property by turbidity in standard liquid medium
Type in all cases: cell-based
Settings in all cases: 35° C.
Escherichia coli = system: Escherichia coli
Experimental: […] The turbidity was determined by measuring the absorbance at a wavelength of 610 nm (the spectrophotometer used was PTL-396S by JASCO Co., Ltd.), and the units for the turbidity were based on JIS1010.

Saccharomyces cerevisiae = system: Saccharomyces cerevisiae
Source text: (§1) For evaluation of the shelf-life extending property (microbiostatic property), there was used a standard liquid medium (pH 7.2) containing the cacao husk-derived water-soluble dietary fiber of the invention at 0%, 0.5% or 1.0% with suitable amounts of shelf stability increasing substances, and using Escherichia coli, Aspergilius oryzae and Saccharomyces cerevisiae as the target strains. […] As the turbidity of the medium increases with growth of the cells, a test substance with a microbiostatic property will inhibit the cell growth and result in less turbidity. The turbidity was determined by measuring the absorbance at a wavelength of 610 nm (the spectrophotometer used was PTL-396S by JASCO Co., Ltd.), and the units for the turbidity were based on JIS1010.

Aspergillus oryzae = system: Aspergillus oryzae
Source text: as §1

Glycerin fatty acid ester
turbidity (Escherichia coli; added at 0.01%, days stored 1): 113 unit
turbidity (Escherichia coli; added at 0.01%, days stored 2): 415 unit
turbidity (Escherichia coli; added at 0.05%, days stored 1): 47 unit
turbidity (Escherichia coli; added at 0.05%, days stored 2): 196 unit
turbidity (Escherichia coli; added at 0.05%, days stored 3): 305 unit
turbidity (Escherichia coli; added at 0.05%, days stored 4): 481 unit
turbidity (Saccharomyces cerevisiae; added at 0.01%, days stored 1): 79 unit
turbidity (Saccharomyces cerevisiae; added at 0.01%, days stored 2): 281 unit
turbidity (Saccharomyces cerevisiae; added at 0.01%, days stored 3): 485 unit
turbidity (Saccharomyces cerevisiae; added at 0.05%, days stored 1): 38 unit
turbidity (Saccharomyces cerevisiae; added at 0.05%, days stored 2): 107 unit
turbidity (Saccharomyces cerevisiae; added at 0.05%, days stored 3): 375 unit
turbidity (Aspergillus oryzae; added at 0.01%, days stored 1): 86 unit
turbidity (Aspergillus oryzae; added at 0.01%, days stored 2): 417 unit
turbidity (Aspergillus oryzae; added at 0.05%, days stored 1): 53 unit
turbidity (Aspergillus oryzae; added at 0.05%, days stored 2): 199 unit
turbidity (Aspergillus oryzae; added at 0.05%, days stored 3): 418 unit

[Cl-].[Na+] [Salt]
turbidity (Escherichia coli; added at 1.0%, days stored 1): 141 unit
turbidity (Escherichia coli; added at 1.0%, days stored 2): 524 unit
turbidity (Escherichia coli; added at 2.0%, days stored 1): 31 unit
turbidity (Escherichia coli; added at 2.0%, days stored 2): 353 unit
turbidity (Saccharomyces cerevisiae; added at 1.0%, days stored 1): 112 unit
turbidity (Saccharomyces cerevisiae; added at 1.0%, days stored 2): 425 unit
turbidity (Saccharomyces cerevisiae; added at 2.0%, days stored 1): 24 unit
turbidity (Saccharomyces cerevisiae; added at 2.0%, days stored 2): 377 unit
turbidity (Aspergillus oryzae; added at 1.0%, days stored 1): 99 unit
turbidity (Aspergillus oryzae; added at 1.0%, days stored 2): 487 unit
turbidity (Aspergillus oryzae; added at 2.0%, days stored 1): 68 unit
turbidity (Aspergillus oryzae; added at 2.0%, days stored 2): 272 unit
turbidity (Aspergillus oryzae; added at 2.0%, days stored 3): 429 unit

CCO [Ethanol]
turbidity (Escherichia coli; added at 0.05%, days stored 1): 104 unit
turbidity (Escherichia coli; added at 0.05%, days stored 2): 441 unit
turbidity (Escherichia coli; added at 0.1%, days stored 1): 112 unit
turbidity (Escherichia coli; added at 0.1%, days stored 2): 382 unit
turbidity (Escherichia coli; added at 0.1%, days stored 3): 455 unit
turbidity (Saccharomyces cerevisiae; added at 0.05%, days stored 1): 59 unit
turbidity (Saccharomyces cerevisiae; added at 0.05%, days stored 2): 251 unit
turbidity (Saccharomyces cerevisiae; added at 0.05%, days stored 3): 487 unit
turbidity (Saccharomyces cerevisiae; added at 0.1%, days stored 1): 36 unit
turbidity (Saccharomyces cerevisiae; added at 0.1%, days stored 2): 182 unit
turbidity (Saccharomyces cerevisiae; added at 0.1%, days stored 3): 411 unit
turbidity (Aspergillus oryzae; added at 0.05%, days stored 1): 17 unit
turbidity (Aspergillus oryzae; added at 0.05%, days stored 2): 128 unit
turbidity (Aspergillus oryzae; added at 0.05%, days stored 3): 328 unit
turbidity (Aspergillus oryzae; added at 0.1%, days stored 1): 10 unit
turbidity (Aspergillus oryzae; added at 0.1%, days stored 2): 112 unit
turbidity (Aspergillus oryzae; added at 0.1%, days stored 3): 251 unit
turbidity (Aspergillus oryzae; added at 0.1%, days stored 4): 475 unit

O=C1O[C@H]([C@@H](O)CO)C([O-])=C1O.[Na+] [Na ascorbate]
turbidity (Escherichia coli; added at 0.1%, days stored 1): 115 unit
turbidity (Escherichia coli; added at 0.1%, days stored 2): 402 unit
turbidity (Escherichia coli; added at 0.5%, days stored 1): 18 unit
turbidity (Escherichia coli; added at 0.5%, days stored 2): 211 unit
turbidity (Escherichia coli; added at 0.5%, days stored 3): 315 unit
turbidity (Escherichia coli; added at 0.5%, days stored 4): 452 unit
turbidity (Saccharomyces cerevisiae; added at 0.1%, days stored 1): 122 unit
turbidity (Saccharomyces cerevisiae; added at 0.1%, days stored 2): 391 unit
turbidity (Saccharomyces cerevisiae; added at 0.5%, days stored 1): 76 unit
turbidity (Saccharomyces cerevisiae; added at 0.5%, days stored 2): 251 unit
turbidity (Saccharomyces cerevisiae; added at 0.5%, days stored 3): 433 unit
turbidity (Aspergillus oryzae; added at 0.1%, days stored 1): 107 unit
turbidity (Aspergillus oryzae; added at 0.1%, days stored 2): 370 unit
turbidity (Aspergillus oryzae; added at 0.5%, days stored 1): 58 unit
turbidity (Aspergillus oryzae; added at 0.5%, days stored 2): 178 unit
turbidity (Aspergillus oryzae; added at 0.5%, days stored 3): 422 unit

Reference: patent US20100040734A1, “Cacao Husk-Derived Water-Soluble, Dietary Fiber, Process For Its Production, Foods and Beverages Containing It And Methods For Their Preparation” (FUJI OIL COMPANY, LIMITED, priority 2000, published 2010)
